Values after ≈ are worked out from the molar mass of the structure shown. Read-outs that look alike come from different tables or passages of the source.
Columns and labels:
[1] = system: Murine leukemia L1210 cells; assay: In vitro growth inhibition of L1210 cells (MTT, 72 hr); assay type: cell-based; conditions: Mus musculus, read-out: L1210 IC50
Procedure: (§1) The reagents for tissue culture were purchased from GIBCO (Grand Island, N.Y.). 5-Dimethylthiazol-2-yl)-2,5-diphenyl tetrazolium bromide (MTT) was purchased from Sigma Chemical Company (St. Louis, Mo.). All agents were prepared as 2 mg/ml stock solutions in DMSO. MTT was prepared as a 1 mg/ml stock solution in Dulbecco's phosphate buffered saline (PBS). All stocks were stored frozen in the dark at -20° C.
(§2) Clone A human colon cancer cells were isolated from the heterogeneous DLD-1 colon tumor line and maintained as previously described (Dexter, D. L.; Barbosa, J. A.; Calabresi, P. Cancer Research 1979, 39, 1020; Dexter, D. L.; Spremulli, E. M.; Fligiel, A.; Barbosa, J. A.; Vogel, R.; Van Vorhees, A.; Calabresi, P. Am. J. Med. 1981, 71, 949.). Murine leukemia L1210 cells were maintained in RPMI-L medium as described (Chen, S.-F.; Ruben, R. L.; Dexter, D. L. Cancer Research 1986, 46, 5014.). All cell lines were incubated at 37° C. in a humidified atmosphere of 5% CO2 -95% air.
(§3) Exponentially growing L1210 cells (1×10^3), or Clone A cells (8×10^2) in 0.1 ml medium were seeded in a 96-well microtiter plate on day 0. On day one, 0.1 ml aliquots of medium containing graded concentrations of test compounds were added to the cell plates. After incubation at 37° C. in a humidified incubator for 72 hr, the plates containing L1210 cells were centrifuged briefly and 100 μl of the growth medium was removed. Cell cultures were incubated with 50 μl of MTT for 4 h at 37° C. (12). The resulting purple formazan precipitate was solubilized with 200 μl of 0.04 N HCl in isopropyl alcohol. Absorbance was read in a Titertek Multiskan MCC scanning well spectrophotometer (Flow Laboratories) at a test wavelength of 570 nm and a reference wavelength of 630 nm. The absorbances were stored on a floppy disk on an IBM-XT and uploaded onto a VAX computer. IC50 values were determined by a computer program that fit the data to the following equation:
(§4) Y=((Am -Ao)/(1+(X/IC50)^n))+Ao
(§5) where Am =absorbance of the control cells; Ao =absorbance of the cells in the presence of highest compound concentration; Y=observed absorbance; X=compound concentration; IC50 =dose of compound that inhibits the number of population doublings of cells to one half that of the number of population doublings of the control cells; and n equals the slope of the straight portion of the curve.
(§6) The values reported in the table are from at least one experiment performed in eight replicates. If more than one experiment was performed, the number reported is the average of all the trials

[2] = system: Clone A human colon cancer cells; assay: In vitro growth inhibition of Clone A cells (MTT, 72 hr); assay type: cell-based; conditions: read-out: Clone A IC50
Procedure: as §1, §2, §3, §4, §5, §6

Compound `CS(=O)(=O)O.O=C1c2cc([N+](=O)[O-])cc3c2c(cc2ccccc23)C(=O)N1CCCCNCCCN1C(=O)c2cc([N+](=O)[O-])cc3c2c(cc2ccccc23)C1=O` [Example 50, 4-[3-(3-Nitrophenanthrene-1,10-dicarboximido)propylamino]-1-(3-nitrophenanthrene-1, 10-dicarboximido)butane Hydromethanesulfonate] has an IC50 ([1]; L1210, 72 h) of 0.126 µg/mL and an IC50 ([2]; 72 h) of 0.032 µg/mL.

`COc1ccc2cc3c4c(cccc4c2c1)C(=O)N([C@H](C)CNCCNC[C@@H](C)N1C(=O)c2cccc4cc([N+](=O)[O-])cc(c24)C1=O)C3=O` [Example 122] gave an IC50 ([1]; L1210, 72 h) of 0.211 µg/mL (≈ 0.32 µM) and an IC50 ([2]; 72 h) of 0.023 µg/mL (≈ 0.0349 µM).

In the case of `COc1ccc2c(c1)cc1c3c(cccc32)C(=O)N(CCCCNCCCN2C(=O)c3cccc4c3c(cc3cc(OC)ccc34)C2=O)C1=O.CS(=O)(=O)O` [Example 54, 4-[3-(7-Methoxyphenanthrene-1,10-dicarboximido)propylamino]-1-(7-methoxyphenanthrene-1,10-dicarboximido)butane Hydromethanesulfonate], the IC50 ([1]; L1210, 72 h) is reported as 0.198 µg/mL and the IC50 ([2]; 72 h) is reported as 0.615 µg/mL.

With `O=C1c2cc([N+](=O)[O-])cc3c2c(cc2cnccc23)C(=O)N1CCCCNCCCN1C(=O)c2cc([N+](=O)[O-])cc3c2c(cc2cnccc23)C1=O` [Example 16, 4-[3-(3-Nitro-7-azaphenanthrene-1,10-dicarboximido)propylamino]-1-(3-nitro-7-azaphenanthrene-1, 10-dicarboximido)butane 2.6-Hydromethanesulfonate] the IC50 ([1]; L1210, 72 h) was under 0.01 µg/mL and the IC50 ([2]; 72 h) was 0.002 µg/mL (≈ 0.00287 µM).

Work on `CS(=O)(=O)O.N#Cc1ccc2cc3c4c(cccc4c2c1)C(=O)N(CCCCNCCCN1C(=O)c2cccc4c2c(cc2ccc(C#N)cc24)C1=O)C3=O` [Example 49, 4-[3-(6-Cyanophenanthrene-1,10-dicarboximido)propylamino]-1-(6-cyanophenanthrene-1, 10-dicarboximido)butane Hydromethanesulfonate] yielded an IC50 ([1]; L1210, 72 h) of 0.026 µg/mL and an IC50 ([2]; 72 h) of 0.007 µg/mL.

With `CS(=O)(=O)O.CS(=O)(=O)O.C[C@H](CNCCNC[C@@H](C)N1C(=O)c2cccc3c4c(cc(c23)C1=O)C(=O)c1ccccc1C4=O)N1C(=O)c2cccc3c4c(cc(c23)C1=O)C(=O)c1ccccc1C4=O` [Example 101, (R,R)-1,2-bis-[2-(7,12-Dihydro-7,12-dioxobenz[a]anthracene-4,5-dicarboximido)propylamino]ethane Dihydromethanesulfonate] the IC50 ([1]; L1210 cells, 72 hr, MTT) was 0.105 µg/mL and the IC50 ([2]; Clone A cells, 72 hr, MTT) was 0.05 µg/mL.

`COc1cc2cc3c4c(cccc4c2cc1OC)C(=O)N(CCCCNCCCN1C(=O)c2cccc4c2c(cc2cc(OC)c(OC)cc24)C1=O)C3=O.CS(=O)(=O)O` [Example 55, 4-[3-(6,7-Dimethoxyphenanthrene-1,10-dicarboximido)propylamino]-1-(6,7-dimethoxyphenanthrene-1,10-dicarboximido)butane Hydromethanesulfonate] gave an IC50 ([1]; L1210, 72 h) of 0.356 µg/mL and an IC50 ([2]; 72 h) of 5.43 µg/mL.

With `CS(=O)(=O)O.CS(=O)(=O)O.C[C@H](CNCCNC[C@@H](C)N1C(=O)c2cccc3c2c(cc2cnccc23)C1=O)N1C(=O)c2cccc3cc([N+](=O)[O-])cc(c23)C1=O` [Example 113, (R,R)-1-[2-(7-Azaphenanthrene-1,10-dicarboximido)propylamino]-2-[2-(3-nitronaphthalene-1,8-dicarboximido)propylamino]ethane Dihydromethanesulfonate] the IC50 ([1]; L1210 cells, 72 hr, MTT) was 0.008 µg/mL and the IC50 ([2]; Clone A cells, 72 hr, MTT) was 0.0003 µg/mL.

For `CS(=O)(=O)O.Cc1ccc2cc3c4c(cccc4c2c1)C(=O)N(CCCCNCCCN1C(=O)c2cccc4c2c(cc2ccc(C)cc24)C1=O)C3=O` [Example 41, 4-[3-(6-Methylphenanthrene-1,10-dicarboximido)propylamino]-1-(6-methylphenanthrene-1, 10-dicarboximido)butane Hydromethanesulfonate], the IC50 ([1]; L1210, 72 h) was 0.317 µg/mL and the IC50 ([2]; 72 h) was 0.804 µg/mL.

For `CS(=O)(=O)O.CS(=O)(=O)O.Cc1nc2cc3c4c(cccc4c2s1)C(=O)N([C@H](C)CNCCNC[C@@H](C)N1C(=O)c2cccc4c2c(cc2nc(C)sc24)C1=O)C3=O` [Example 83, (R,R) -1,2-bis-[2-(2-Methylnaphtho[2,1-d]thiazole-5,6-dicarboximido)propylamino]ethane Dihydromethanesulfonate], the IC50 ([1]; L1210 cells, 72 hr, MTT) was under 0.01 µg/mL and the IC50 ([2]; Clone A cells, 72 hr, MTT) was 0.004 µg/mL.

For `CS(=O)(=O)O.CS(=O)(=O)O.C[C@H](CNCCNC[C@@H](C)N1C(=O)c2cccc3c2c(cc2cccnc23)C1=O)N1C(=O)c2cccc3cc([N+](=O)[O-])cc(c23)C1=O` [Example 110, (R,R)-1-[2-(5-Azaphenanthrene-1,10-dicarboximido)propylamino]-2-[2-(3-nitronaphthalene-1,8-dicarboximido)propylamino]ethane Dihydromethanesulfonate], the IC50 ([1]; L1210 cells, 72 hr, MTT) was 0.183 µg/mL and the IC50 ([2]; Clone A cells, 72 hr, MTT) was 0.006 µg/mL.

For `CS(=O)(=O)O.O=C1c2cccc3c2c(cc2cccc([N+](=O)[O-])c23)C(=O)N1CCCCNCCCN1C(=O)c2cccc3c2c(cc2cccc([N+](=O)[O-])c23)C1=O` [Example 51, 4-[3-(5-Nitrophenanthrene-1,10-dicarboximido)propylamino]-1-(5-nitrophenanthrene-1, 10-dicarboximido)butane Hydromethanesulfonate], the IC50 ([1]; L1210, 72 h) was 0.205 µg/mL and the IC50 ([2]; 72 h) was 0.747 µg/mL.

`CS(=O)(=O)O.O=C1c2cccc3c2c(c(C(F)(F)F)c2ccccc23)C(=O)N1CCCCNCCCN1C(=O)c2cccc3c2c(c(C(F)(F)F)c2ccccc23)C1=O` [Example 45, 4-(3-[9-(Trifluoromethyl)phenanthrene-1,10-dicarboximido]propylamino)-1-[9-(trifluoromethyl)phenanthrene-1,10-dicarboximido]butane Hydromethanesulfonate] gave an IC50 ([1]; L1210, 72 h) of 0.3 µg/mL and an IC50 ([2]; 72 h) of 1.05 µg/mL.

Work on `C[C@H](CNCCNC[C@@H](C)N1C(=O)c2cc([N+](=O)[O-])cc3c2c(cc2ccncc23)C1=O)N1C(=O)c2cccc3cc([N+](=O)[O-])cc(c23)C1=O` [Example 119, (R,R)-1-[3-Nitro-6-azaphenanthrene-1, 10-dicarboximido)propylamino]-2-[2-(3-nitronaphthalene-1,8-dicarboximido)propylamino]ethane Dihydromethanesulfonate] yielded an IC50 ([1]; L1210, 72 h) of 0.044 µg/mL and an IC50 ([2]; 72 h) of 0.003 µg/mL.

`C[C@H](CNCCNC[C@@H](C)N1C(=O)c2cccc3c2c(cc2ccc(F)cc23)C1=O)N1C(=O)c2cccc3cc([N+](=O)[O-])cc(c23)C1=O` [Example 120] showed an IC50 ([1]; L1210, 72 h) of 0.261 µg/mL (≈ 0.403 µM) and an IC50 ([2]; 72 h) of 0.013 µg/mL (≈ 0.0201 µM).

For `CS(=O)(=O)O.CS(=O)(=O)O.CS(=O)(=O)O.Nc1cc2c3c(cc4ccccc4c3c1)C(=O)N(CCCCNCCCN1C(=O)c3cc(N)cc4c3c(cc3ccccc34)C1=O)C2=O` [Example 53, 4-[3-(3-Aminophenanthrene-1,10-dicarboximido)propylamino]-1-(3-aminophenanthrene-1,10-dicarboximido)butane Trihydromethanesulfonate], the IC50 ([1]; L1210, 72 h) was 0.453 µg/mL and the IC50 ([2]; 72 h) was 0.755 µg/mL.

Work on `CS(=O)(=O)O.CS(=O)(=O)O.C[C@H](CNCCNC[C@@H](C)N1C(=O)c2cc([N+](=O)[O-])cc3c2c(cc2ncccc23)C1=O)N1C(=O)c2cccc3cc([N+](=O)[O-])cc(c23)C1=O` [Example 116, (R,R)-1-[2-(3-Nitro-8-azaphenanthrene-1,10-dicarboximido)propylamino]-2-[2-(3-nitronaphthalene-1,8-dicarboximido)propylamino]ethane Dihydromethanesulfonate] yielded an IC50 ([1]; L1210, 72 h) of 0.012 µg/mL and an IC50 ([2]; 72 h) of 0.003 µg/mL.

`C[C@H](CNCCNC[C@@H](C)N1C(=O)c2cccc3c2c(cc2ccc(C(F)(F)F)cc23)C1=O)N1C(=O)c2cccc3cc([N+](=O)[O-])cc(c23)C1=O` [Example 121] was tested, and the IC50 ([1]; L1210, 72 h) was 0.397 µg/mL (≈ 0.569 µM) and the IC50 ([2]; 72 h) was 0.032 µg/mL (≈ 0.0459 µM).

Compound `CS(=O)(=O)O.O=C1c2cccc3c2c(cc2occc23)C(=O)N1CCCCNCCCN1C(=O)c2cccc3c2c(cc2occc23)C1=O` [Example 90, 4-[3-(Naphtho[2,1-b]furan-5,6-dicarboximido)propylamino]-1-(naphtho[2,1-b]furan-5,6-dicarboximido)butane Hydromethanesulfonate] has an IC50 ([1]; L1210 cells, 72 hr, MTT) of 0.013 µg/mL and an IC50 ([2]; Clone A cells, 72 hr, MTT) of 0.017 µg/mL.

Compound `O=C1c2cccc3c2c(c(-c2ccccc2)c2ccccc23)C(=O)N1CCCCNCCCN1C(=O)c2cccc3c2c(c(-c2ccccc2)c2ccccc23)C1=O` [Example 48, 4-[3-(9-Phenylphenanthrene-1,10-dicarboximido)propylamino]-1-(9-phenylphenanthrene-1, 10-docarboximido)butane Hydromethanesulfonate] has an IC50 ([1]; L1210, 72 h) of 0.773 µg/mL and an IC50 ([2]; 72 h) of 1.46 µg/mL.

Source: patent US5585382A, “Polycyclic and heterocyclic chromophores for bis-imide tumoricidals” (The DuPont Merck Pharmaceutical Company, priority 1995, dated 1996)
